The values below come from ChEMBL document CHEMBL5608113, “Targeting of CAF-induced therapy resistance in CRC organoid-stroma co-cultures” (2024).

Where “and” joins values, the source holds several entries; their conditions need not be identical. Equal values may be shown once.

Holding throughout (format): functional, Homo sapiens
Settings in all cases: for viability at 10 µM / viability at 1 µM: Homo sapiens, read-out: Cell Viability; for viability at 1 µM: Concentration 1 uM

Test [1] deals with Colon cancer organoid. The test can be described thus: Targeting of F14 CAF-induced therapy resistance in O14 CRC organoid-stroma co-culture. Cell viability is reported without Gefitinib.
Test [2] deals with Colon cancer organoid. Nature of the test: Targeting of F14 CAF-induced therapy resistance in O14 CRC organoid-stroma co-culture. Cell viability is reported with Gefitinib.
Test [3] concerns Colon cancer organoid. The test can be described thus: Targeting of F14 CAF-induced therapy resistance in O23 CRC organoid-stroma co-culture. Cell viability is reported without Gefitinib.
Test [4] has as its system Colon cancer organoid. Nature of the test: Targeting of F14 CAF-induced therapy resistance in O23 CRC organoid-stroma co-culture. Cell viability is reported with Gefitinib.
Test [5] deals with Colon cancer organoid. Nature of the test: Targeting of F14 CAF-induced therapy resistance in O23 CRC organoid-stroma co-culture. Cell viability is reported with SN-38.

The viability is a read-out of living cells in per cent, often relative to untreated cells.

As to `Cc1sc2c(c1C)C(c1ccc(Cl)cc1)=N[C@@H](CC(=O)OC(C)(C)C)c1nnc(C)n1-2`, the viability at 10 µM in the test with Colon cancer organoid [1] (Concentration 10 uM) was 25.8%; in the test with Colon cancer organoid [2] (Concentration 10 uM), 6.17%; in the test on Colon cancer organoid [3] (Concentration 10 uM), 65.2%; in the test on Colon cancer organoid [4] (Concentration 10 uM) it was 35.6%; in the test on Colon cancer organoid [5] (Concentration 10 uM), 53.4%.
In the same order, the values of `Cc1ccc(NC(=O)Nc2cc(C(F)(F)F)ccc2F)cc1Nc1ccc2c(c1)NC(=O)/C2=C\c1ccc[nH]1` are 121%, 40%, 117%, 82.1% and 74.2%.
As to `COc1ccccc1S(=O)(=O)Nc1ccc2c(c1)CN(C)C(=O)N2`, the viability at 10 µM in the test on Colon cancer organoid [1] (Concentration 10 uM) was found to be 101%; in the test with Colon cancer organoid [2] (Concentration 10 uM) it was 57.5%; in the test on Colon cancer organoid [3] (Concentration 10 uM) it was 105%; in the test on Colon cancer organoid [4] (Concentration 10 uM) it was 53.9%; in the test with Colon cancer organoid [5] (Concentration 10 uM), 73.2%.
Take `CCCCNc1ncc(-c2ccc(CN3CCOCC3)cn2)c(N[C@H]2CC[C@H](O)CC2)n1`: the viability at 10 µM with Colon cancer organoid [1] (Concentration 10 uM) was determined as 9.12%; in the test on Colon cancer organoid [2] (Concentration 10 uM), 3.91%; with Colon cancer organoid [3] (Concentration 10 uM), 18.1%; with Colon cancer organoid [4] (Concentration 10 uM), 12%; in the test with Colon cancer organoid [5] (Concentration 10 uM), 28.9%.
For the compound `CCOC(=O)Nc1cc(-c2ccc(C)c(NS(C)(=O)=O)c2)nn2c(C)nnc12`, the viability at 10 µM was determined as 59.2% in the test on Colon cancer organoid [1] (Concentration 10 uM); 14% with Colon cancer organoid [2] (Concentration 10 uM); 146% in the test on Colon cancer organoid [3] (Concentration 10 uM); 63.4% with Colon cancer organoid [4] (Concentration 10 uM); 79.5% with Colon cancer organoid [5] (Concentration 10 uM).
Take `COc1ccccc1C(=O)Nc1cc2c(cc1N1CCCC1)n(C)c(=O)n2C`: the viability at 10 µM in the test on Colon cancer organoid [1] (Concentration 10 uM) turned out to be 114%; in the test on Colon cancer organoid [2] (Concentration 10 uM), 46.1%; with Colon cancer organoid [3] (Concentration 10 uM) it was 115%; in the test with Colon cancer organoid [4] (Concentration 10 uM), 79%; with Colon cancer organoid [5] (Concentration 10 uM), 84.2%.
For `COc1ccc(CCc2nc3cc(-c4c(C)noc4C)ccc3n2C[C@H](C)N2CCOCC2)cc1Cl`, the viability at 10 µM in the test on Colon cancer organoid [1] (Concentration 10 uM) was 121%; in the test on Colon cancer organoid [2] (Concentration 10 uM), 61.4%; in the test with Colon cancer organoid [3] (Concentration 10 uM), 91.4%; in the test with Colon cancer organoid [4] (Concentration 10 uM) it was 47.7%; in the test with Colon cancer organoid [5] (Concentration 10 uM), 78.6%.
Take `CCCOc1ccn2c(C(C)=O)cc(-c3ccccc3S(C)(=O)=O)c2c1`: the viability at 10 µM turned out to be 111% with Colon cancer organoid [1] (Concentration 10 uM); 59.1% in the test with Colon cancer organoid [2] (Concentration 10 uM); 113% in the test on Colon cancer organoid [3] (Concentration 10 uM); 65.2% in the test with Colon cancer organoid [4] (Concentration 10 uM); 98.8% in the test on Colon cancer organoid [5] (Concentration 10 uM).
Take `COc1cc(C#N)ccc1S(=O)(=O)Nc1ccc2c(c1)cc(C)c(=O)n2C`: the viability at 10 µM was 101% in the test with Colon cancer organoid [1] (Concentration 10 uM); 66.9% in the test on Colon cancer organoid [2] (Concentration 10 uM); 149% in the test on Colon cancer organoid [3] (Concentration 10 uM); 86% in the test on Colon cancer organoid [4] (Concentration 10 uM); 127% in the test with Colon cancer organoid [5] (Concentration 10 uM).
For `O=C(/C=C/N1C[C@H]2C[C@@H]1CN2c1ccccn1)c1ccccc1O`, in that order: 109%, 70.1%, 77.2%, 38.6% and 45.4%.
For the compound `CCn1cc(-c2cccc(C(F)(F)F)c2)c2sc(C(=N)NC3CCS(=O)(=O)CC3)cc2c1=O`, the viability at 10 µM stood at 132% with Colon cancer organoid [1] (Concentration 10 uM); 66.7% with Colon cancer organoid [2] (Concentration 10 uM); 144% in the test on Colon cancer organoid [3] (Concentration 10 uM); 68.8% in the test with Colon cancer organoid [4] (Concentration 10 uM); 84.2% with Colon cancer organoid [5] (Concentration 10 uM).
For `COc1cc2c(cc1NS(=O)(=O)c1ccc(Br)cc1C)n(C)c(=O)n2C`, in that order: 86.7%, 57.4%, 169%, 69.8% and 117%.
On to `CCCS(=O)(=O)c1nc(NC2CC2)cc(-c2ccc3c(ccn3C3CC(C)(C)NC(C)(C)C3)c2)n1`, for which the “Cell Viability” value with Colon cancer organoid [1] (Concentration 10 uM, 10 µM) is 91.0371% and 136.896%; in the test on Colon cancer organoid [2] (Concentration 10 uM, 10 µM), 57.1178%; in the test with Colon cancer organoid [3] (Concentration 10 uM, 10 µM), 73.362% and 105.525%; with Colon cancer organoid [4] (Concentration 10 uM, 10 µM), 66.056%; in the test with Colon cancer organoid [5] (Concentration 10 uM, 10 µM) it was 68.6533%. For the same compound, the values for the viability at 10 µM with Colon cancer organoid [2] (Concentration 10 uM), in the test on Colon cancer organoid [4] (Concentration 10 uM) and with Colon cancer organoid [5] (Concentration 10 uM) were 49.6%, 68.4% and 77.1%, respectively.
As for `COc1cc(-c2cn(C)c(=O)c3cnccc23)c(OC)cc1CN(C)C`, the viability at 10 µM in the test on Colon cancer organoid [1] (Concentration 10 uM) is 95.6%; in the test with Colon cancer organoid [2] (Concentration 10 uM), 53%; with Colon cancer organoid [3] (Concentration 10 uM), 55.4%; in the test on Colon cancer organoid [4] (Concentration 10 uM), 31.8%; with Colon cancer organoid [5] (Concentration 10 uM) it was 44.2%.
Consider `CCC(=O)N1CCOc2c(cc(-c3ccc(OC)c(OC)c3)cc2OCC2CCCN(C)C2)C1` (stereo not drawn), for which the viability at 10 µM worked out at 102% in the test with Colon cancer organoid [1] (Concentration 10 uM); 74.7% in the test with Colon cancer organoid [2] (Concentration 10 uM); 119% in the test with Colon cancer organoid [3] (Concentration 10 uM); 60.4% in the test on Colon cancer organoid [4] (Concentration 10 uM); 96.1% in the test with Colon cancer organoid [5] (Concentration 10 uM).
In the same order, the values of `CC(=O)c1cc(-c2cc(C(=O)NC3CC3)ccc2C)c2ncccn12` are 83.8%, 65.1%, 108%, 71.5% and 91.2%.
In the same order, the values of `Cc1cc2c(cc1N1C(=O)c3cccc4c(CCCO)ccc(c34)C1=O)n(C)c(=O)n2C` are 47.7%, 43.3%, 150%, 71.7% and 81.8%.
With `Cn1cc(CCn2cnc(-c3cnn(C)c3)c2-c2ccc(C#N)cc2)cn1`, the viability at 10 µM in the test on Colon cancer organoid [1] (Concentration 10 uM) is 105%; in the test on Colon cancer organoid [2] (Concentration 10 uM), 71.4%; in the test on Colon cancer organoid [3] (Concentration 10 uM), 141%; in the test with Colon cancer organoid [4] (Concentration 10 uM), 63.6%; in the test on Colon cancer organoid [5] (Concentration 10 uM) it was 92.5%.
On to `Cc1nnc2c3ccccc3c(N[C@@H](C)[C@H](c3ccccc3)N(C)C)nn12`, for which the viability at 10 µM turned out to be 69.8% with Colon cancer organoid [1] (Concentration 10 uM); 53.6% with Colon cancer organoid [2] (Concentration 10 uM); 119% in the test with Colon cancer organoid [3] (Concentration 10 uM); 55.2% in the test on Colon cancer organoid [4] (Concentration 10 uM); 141% with Colon cancer organoid [5] (Concentration 10 uM).
In the case of `CCCCN(CCCC)C(=O)CN1C[C@H](c2cc(OC)c3c(c2)OCO3)[C@@H](C(=O)O)[C@@H]1CC(C)(C)CCC`, the viability at 1 µM worked out at 125% in the test with Colon cancer organoid [1]; 44.1% in the test with Colon cancer organoid [2]; 145% in the test on Colon cancer organoid [3]; 50% in the test on Colon cancer organoid [4]; 115% in the test on Colon cancer organoid [5].
As for `NC1(c2ccc(-c3nc4c(O)ccnn4c3-c3ccccc3)cc2)CCC1`, the viability at 1 µM was 98.8% in the test on Colon cancer organoid [1]; 49.5% in the test with Colon cancer organoid [2]; 122% in the test on Colon cancer organoid [3]; 69.1% with Colon cancer organoid [4]; 65% in the test on Colon cancer organoid [5].
In the case of `CCNC(=O)c1cc2c(N3CCOCC3C)ccnc2[nH]1` (stereo not drawn), the viability at 10 µM in the test on Colon cancer organoid [1] (Concentration 10 uM) turned out to be 130%; in the test with Colon cancer organoid [2] (Concentration 10 uM) it was 55.4%; with Colon cancer organoid [3] (Concentration 10 uM), 156%; in the test with Colon cancer organoid [4] (Concentration 10 uM), 56.4%; with Colon cancer organoid [5] (Concentration 10 uM), 97.3%.
On to `COc1ccccc1C(=O)Nc1cc2c(cc1N1CCNCC1C)n(C)c(=O)n2C` (stereo not drawn), for which the viability at 10 µM worked out at 98.7% with Colon cancer organoid [1] (Concentration 10 uM); 66% with Colon cancer organoid [2] (Concentration 10 uM); 84% in the test with Colon cancer organoid [3] (Concentration 10 uM); 56.5% in the test on Colon cancer organoid [4] (Concentration 10 uM); 55.3% in the test on Colon cancer organoid [5] (Concentration 10 uM).
Regarding `COc1cccc2c1C(=O)c1c(O)c3c(c(O)c1C2=O)CC(O)(C(=O)CO)CC3OC1CC(N)C(O)C(C)O1` (stereo not drawn), the viability at 10 µM with Colon cancer organoid [1] (Concentration 10 uM) came out at 1.66%; in the test with Colon cancer organoid [2] (Concentration 10 uM), 0.921%; in the test with Colon cancer organoid [3] (Concentration 10 uM), 3.9%; in the test on Colon cancer organoid [4] (Concentration 10 uM) it was 1.62%; in the test with Colon cancer organoid [5] (Concentration 10 uM), 5.38%.
